Measurements taken from patent publication US20120165319A1, “INHIBITORS OF INTERLEUKIN-1 BETA CONVERTING ENZYME” (VERTEX PHARMACEUTICALS INCORPORATED, priority 1995, published 2012).
Like-named read-outs stand apart in the source and are kept apart here.

How the values were obtained:
[1] = Pharmacokinetic studies in the mouse (i.v. clearance, plasma levels); format: in vivo; settings: CD-1, plasma, iv, 25 mg/kg, mouse
Outline: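 Male CD-1 mice (26-31 g) given 25 mg/kg i.v. via tail vein in 0.02M Tris (2.5 mg/ml), groups of 5 per timepoint from 2 to 120 min. Heparinized plasma deproteinated (perchloric acid or acetonitrile) and analysed by reverse-phase HPLC with UV or MS detection against plasma-spiked calibration (0.5 to 50 μg/ml).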

IL-1β, human whole blood = experiment: Whole blood assay for IL-1β production; format: cell-based; settings: read-out: Whole human blood IC50
Outline: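 IL-1β was quantified by ELISA in plasma diluted 1:200. The plasma came from EDTA-anticoagulated human whole blood incubated at 30 °C for 16-18 h with LPS (final 5.0 ng/ml) plus a saline serial dilution of compound. Controls were no-LPS, no-inhibitor and highest-vehicle.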

[2] = tested on: IL-1β production, LPS-challenged mice; experiment: In vivo acute assay for efficacy as anti-inflammatory agent: LPS-induced IL-1β production in mice; design: species or system mouse; settings: Mus musculus, po, LPS challenged mice, compound PO, 50 mg/kg, read-out: percent inhibition of IL-1β production
Outline: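 Serum IL-1β was measured by ELISA 7 h after an IP dose of 20 mg/kg LPS in CD1 mice, n=6 per group. Compounds in olive oil/DMSO/ethanol 90:5:5 were injected IP 1 h post-LPS (some analogs were dosed at challenge), and separate groups received 50 mg/kg by oral gavage.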

[3] = Homo sapiens, * = values obtained upon reassay
[4] = 0 h, administered 0 h relative to time of LPS challenge
[5] = 1 h, administered +1 h relative to time of LPS challenge
[6] = 2 h, administered −2 h relative to time of LPS challenge
[7] = * = values obtained upon reassay

| clearance ([1]; Table 17) [mL/min/kg] | melting point | clearance [1] [mL/min/kg] | IC50 (IL-1β, human whole blood; [3]) [nM] | SMILES | IC50 (IL-1β, human whole blood; Homo sapiens, Table 17) [nM] | inhibition at 50 mg/kg [2, 4] [%] | inhibition at 50 mg/kg [2, 5] [%] | inhibition at 50 mg/kg [2, 6] [%] | IC50 (IL-1β, human whole blood; [7]) [nM] | inhibition at 50 mg/kg ([2]; 1 h, administered −1 h relative to time of LPS challenge) [%] |
| --- | --- | --- | --- | --- | --- | --- | --- | --- | --- | --- |
| 41 | 121 to 127 °C |  |  | O=C1C[C@H](NC(=O)[C@@H]2CCCN3C(=O)CC[C@H](NC(=O)c4cccc5ccccc45)C(=O)N23)C(OCc2ccccc2)O1 (stereo partly drawn) [Compound 213v, [1S,9S(2RS,3S)]N-(2-Benzyloxy-5-oxotetrahydrofuran-3-yl)-6,10-dioxo-9-(naphth-1-oylamino)-1,2,3,4,7,8,9,10-octahydro-6H-pyridazino[1,2-a][1,2]diazepine-1-carboxamide] | 1100 |  |  |  |  |  |
|  | 167 to 180 °C | 89 | > 20000 | O=C(O)C[C@H](NC(=O)[C@@H]1CCCN2C(=O)CC[C@H](NC(=O)c3ccccc3)C(=O)N12)C(=O)c1nc2cc(Cl)cc(Cl)c2o1 [Compound 223e, [3S(1S,9S)]3-(9-Benzoylamino-6,10-dioxo-1,2,3,4,7,8,9,10-octahydro-6H-pyridazino-[1,2-a][1,2]diazepine-1-carboxamido)-4-(5,7-dichlorobenzoxazol-2-yl)-4-oxobutanoic acid] |  |  |  |  |  |  |
|  | 95 to 100 °C | 109 | 1800 | O=C(O)C[C@H](NC(=O)[C@@H]1CCCN2C(=O)CC[C@H](NC(=O)c3ccccc3)C(=O)N12)C(=O)CSCc1ccccc1Cl [Compound 226e, [3S(1S,9S)]3-(9-Benzoylamino-6,10-dioxo-1,2,3,4,7,8,9,10-octahydro-6H-pyridazino[1,2-a][1,2]-diazepine-1-carboxamido)-5-(2-chlorophenyl)methylthio-4-oxopentanoic acid] |  |  |  |  |  |  |
| 78 | 105 °C (dec.) |  |  | COC(=O)N[C@H]1CCC(=O)N2CCC[C@@H](C(=O)N[C@@H](CC(=O)O)C(=O)CSc3ncccn3)N2C1=O [Compound 511c, [3S(1S,9S)]3-[6,10-Dioxo-9-(methoxycarbonyl)-amino-1,2,3,4,7,8,9,10-octahydro-6H-pyridazino[1,2-a][1,2]diazepine-1-carboxamido]-5-(2-mercaptopyrimidine)-4-oxopentanoic acid] |  |  |  |  |  |  |

More lines, now with the values behind:

| SMILES | clearance ([1]; Table 17) [mL/min/kg] | melting point | clearance [1] [mL/min/kg] | IC50 (IL-1β, human whole blood; [3]) [nM] | IC50 (IL-1β, human whole blood; Homo sapiens, Table 17) [nM] | inhibition at 50 mg/kg [2, 4] [%] | inhibition at 50 mg/kg [2, 5] [%] | inhibition at 50 mg/kg [2, 6] [%] | IC50 (IL-1β, human whole blood; [7]) [nM] | inhibition at 50 mg/kg ([2]; 1 h, administered −1 h relative to time of LPS challenge) [%] |
| --- | --- | --- | --- | --- | --- | --- | --- | --- | --- | --- |
| O=C[C@H](CC(=O)O)NC(=O)[C@@H]1CCCN2CCC[C@H](NC(=O)c3ccccc3)C(=O)N12 [Compound 246] |  | 110 to 115 °C | 31 | 10000 |  |  |  |  |  |  |
| COC(=O)N[C@H]1CCC(=O)N2CCC[C@@H](C(=O)N[C@@H](CC(=O)O)C(=O)COC(=O)c3c(C)cccc3C)N2C1=O [Compound 285, [3S(1S,9S)]5-(2,6-Dimethylbenzoyloxy)-3-[6,10-dioxo-9-(methoxycarbonyl)amino-1,2,3,4,7,8,9,10-octahydro-6H-pyridazino[1,2-a][1,2]diazepine-1-carboxamido]-4-oxopentanoic acid] |  | 110 °C (dec.) | 130 | 1000 |  |  |  |  |  |  |
| Cc1ccccc1C(=O)N[C@H]1CCC(=O)N2CCC[C@@H](C(=O)N[C@H](C=O)CC(=O)O)N2C1=O [Compound 404] |  | 156 to 159 °C | 64 | 1100 |  | 6 | 56 | 55 |  |  |
| O=C[C@H](CC(=O)O)NC(=O)[C@@H]1CCCN2C(=O)CC[C@H](NC(=O)c3cccc4ccccc34)C(=O)N12 [Compound 408, [3S(1S,9S)]3-[6,10-Dioxo-9-(naphth-1-oylamino)-1,2,3,4,7,8,9,10-octahydro-6H-pyridazino[1,2-a][1,2]diazepine-1-carboxamido]-4-oxobutanoic acid] |  | 157 to 165 °C | 41 | 1000 |  |  |  |  |  |  |
| O=C[C@H](CC(=O)O)NC(=O)[C@@H]1CCCN2C(=O)CC[C@H](NC(=O)c3ccc4c(c3)OCO4)C(=O)N12 [Compound 415, [3S(1S,9S)]3-[6,10-Dioxo-9-(3,4-methylenedioxybenzoylamino)-1,2,3,4,7,8,9,10-octahydro-6H-pyridazino[1,2-a][1,2]diazepine-1-carboxamido]-4-oxobutanoic acid] |  | 158 to 162 °C | 26 |  |  |  |  |  |  |  |
| COc1cc(C(=O)N[C@H]2CCC(=O)N3CCC[C@@H](C(=O)N[C@H](C=O)CC(=O)O)N3C2=O)cc(OC)c1OC [Compound 417, [3S(1S,9S)]3-[6,10-Dioxo-1,2,3,4,7,8,9,10-octahydro-9-(3,4,5-trimethoxybenzoylamino)-6H-pyridazino[1,2-a][1,2]diazepine-1-carboxamido]-4-oxobutanoic acid] |  | 145 to 155 °C | 33 | 6000 |  |  |  |  |  |  |
| CC(=O)Nc1cccc(C(=O)N[C@H]2CCC(=O)N3CCC[C@@H](C(=O)N[C@H](C=O)CC(=O)O)N3C2=O)c1 [Compound 450, [3S(1S,9S)]3-{9-[(3-Acetamido)benzamido]-6,10-dioxo-1,2,3,4,7,8,9,10-octahydro-6H-pyridazino[1,2-a][1,2]diazepine-1-carboxamido}-4-oxobutanoic acid] |  | 175 to 179 °C | 18 | 2200 |  | 35 |  | 0 | 1700 |  |
| O=C[C@H](CC(=O)O)NC(=O)[C@@H]1CCCN2C(=O)CC[C@H](NC(=O)c3cc4ccccc4[nH]3)C(=O)N12 [Compound 475, [3S(1S,9S)]3-[6,10-Dioxo-9-(indol-2-oylamino)-1,2,3,4,7,8,9,10-octahydro-6H-pyridazino[1,2-a][1,2]diazepine-1-carboxamido]-4-oxobutanoic acid] |  | 150 °C | 31 | 400 |  | 15 |  | 0 | 350 |  |
| O=C[C@H](CC(=O)O)NC(=O)[C@@H]1CCCN2C(=O)CCN(NC(=O)c3ccc4c(c3)OCO4)C(=O)N12 [Compound 1015, [3S(4S)]3-[6,10-Dioxo-7-(3,4-methylenedioxybenzoylamino)-1,2,3,4,7,8,9,10-octahydro-6H-pyridazino[1,2-a][1,2,4]triazepine-4-carboxamido]-4-oxobutanoic acid] |  | 170 to 175 °C |  | 1700 |  | 28 |  | 15 |  |  |
| O=C1C[C@H](NC(=O)[C@@H]2CCCN3C(=O)CC[C@H](NC(=O)c4ccccc4)C(=O)N23)[C@H](OCc2ccccc2)O1 [Compound 2100o, [1S,9S(2R,3S)]9-Benzoylamino-N-(2-benzyloxy-5-oxotetrahydrofuran-3-yl)-6,10-dioxo-1,2,3,4,7,8,9,10-octahydro-6H-pyridazino[1,2-a][1,2]diazepine-1-carboxamide] |  | 115 to 117 °C |  |  | 1500 | 68 | 64 | 31 |  | 44 |
